From patent US9408852B2, “Method of lowering serum uric acid levels with (S)-tofisopam” (PHARMOS CORPORATION, priority 2011, dated 2016)
Values joined by “and” are separate entries in the source; they are usually repeats but may differ in a detail not shown here. Identical values can stand only once.

How the values were obtained:
Type in all cases: in vivo, human
serum creatinine = assay: Serum creatinine in male and female patients with hyperuricemia and gout, 7 days (Example 8)
Procedure: The study lasted 7 days, and patients were treated with placebo or 50 mg of enantiomerically-pure (S)-tofisopam once a day (qd) on Day 1 and Day 7 of the study, and with placebo or 50 mg of enantiomerically-pure (S)-tofisopam three times a day (tid) for Days 2 to 6 of the study. […] In Table 7, days indicated with a minus sign (e.g. D-1) indicate the time point corresponding to that number of days before treatment was initiated. For example, D-14 is the time point fourteen days before treatment was initiated.

[1] = test system: urinary creatinine excretion; assay: 24 h urinary creatinine excretion in patients with hyperuricemia and gout (Example 9); settings: 50 mg qd Day 1 and 7, tid Days 2 to 6
Procedure: (§1) The study lasted 7 days, and patients were treated with placebo or 50 mg of enantiomerically-pure (S)-tofisopam once a day (qd) on Day 1 and Day 7 of the study, and with placebo or 50 mg of enantiomerically-pure (S)-tofisopam three times a day (tid) for Days 2 to 6 of the study. […] In Table 8, days indicated with a minus sign (e.g. D-1) indicate the time point corresponding to that number of days before treatment was initiated. For example, D-14 is the time point fourteen days before treatment was initiated.

serum uric acid = assay: Serum uric acid after single oral doses in male healthy volunteers (Example 2); settings: for Mean CFB (change from baseline) in uric acid levels: male healthy volunteers, n = 6
Procedure: Male healthy volunteers received 50-400 mg enantiomerically-pure (S)-tofisopam by oral administration. Mean serum uric acid values fell by 23% to 30% within 4 hours after receiving single doses (Table 1).

[2] = test system: urinary uric acid excretion; assay: 24 h urinary uric acid excretion in patients with hyperuricemia and gout (Example 9)
Procedure: as §1

[3] = 50 mg qd Day 1 and Day 7, tid Days 2 to 6, Day 1 6 h (Day 1 0 h = 0.0), hyperuricemia and gout
[4] = 50 mg qd Day 1 and Day 7, tid Days 2 to 6, Day 1 to Day 2: Day 1 0 h + Day 2, hyperuricemia and gout
[5] = 50 mg qd Day 1 and Day 7, tid Days 2 to 6, Day 2 (Day 1 0 h = 0.0), hyperuricemia and gout
[6] = 50 mg qd Day 1 and Day 7, tid Days 2 to 6, Day 3 (Day 1 0 h = 0.0), hyperuricemia and gout
[7] = 50 mg qd Day 1 and Day 7, tid Days 2 to 6, Day 4 (Day 1 0 h = 0.0), hyperuricemia and gout
[8] = 50 mg qd Day 1 and Day 7, tid Days 2 to 6, Day 5 (Day 1 0 h = 0.0), hyperuricemia and gout
[9] = 50 mg qd Day 1 and Day 7, tid Days 2 to 6, Day 6 (Day 1 0 h = 0.0), hyperuricemia and gout
[10] = 50 mg qd Day 1 and Day 7, tid Days 2 to 6, Day 6 to Day 7: Day 6 + Day 7, hyperuricemia and gout
[11] = 50 mg qd Day 1 and Day 7, tid Days 2 to 6, Day 7 (Day 1 0 h = 0.0), hyperuricemia and gout
[12] = 50 mg qd Day 1 and Day 7, tid Days 2 to 6, Day 8 (after treatment stopped), hyperuricemia and gout
[13] = 50 mg qd Day 1 and Day 7, tid Days 2 to 6, Day 15 (after treatment stopped), hyperuricemia and gout
[14] = individual patient (P#), [D 1 to D 2] from [D −2 to D −1]
[15] = individual patient (P#), [D 6 to D 7] from [D 1 to D 2]
[16] = mean (M) of patients, [D 1 to D 2] from [D −2 to D −1]
[17] = mean (M) of patients, [D 6 to D 7] from [D 1 to D 2]

CC[C@@H]1C(C)=NN=C(c2ccc(OC)c(OC)c2)c2cc(OC)c(OC)cc21 [(S)-tofisopam]
Percent change in serum creatinine, individual patients (P# 1-13) (serum creatinine; [3]): 10.1% and 0.9% and 2.9% and 0.0% (2×) and 1.8% and 5.7% and 4.8% and 10.3%
Percent change in serum creatinine, mean (M) of 13 patients (serum creatinine; [3]): 2.5%
Percent change in serum creatinine, individual patients (P# 1-13) (serum creatinine; [4]): 4.4% and 0.9% and 0.5% (2×) and −1.0% and 2.3% and 0.8% and −1.3% and 6.7%
Percent change in serum creatinine, mean (M) of 13 patients (serum creatinine; [4]): 1.1%
Percent change in serum creatinine, individual patients (P# 1-13) (serum creatinine; [5]): 8.9% and 1.9% and 1.0% and −2.0% and 4.5% and 0.9% and 1.6% and −2.6% and 13.3%
Percent change in serum creatinine, mean (M) of 13 patients (serum creatinine; [5]): 2.1%
Percent change in serum creatinine, individual patients (P# 1-13) (serum creatinine; [6]): 7.6% and 3.7% and 13.6% and 2.0% and 16.2% and 10.4% and 4.8% and 17.9% and 24.0% and 14.9%
Percent change in serum creatinine, mean (M) of 13 patients (serum creatinine; [6]): 10.1%
Percent change in serum creatinine, individual patients (P# 1-13) (serum creatinine; [7]): 3.8% and −5.6% and 4.9% and −2.0% and 21.6% and −2.8% and 3.2% and 14.1% and 18.7%
Percent change in serum creatinine, mean (M) of 13 patients (serum creatinine; [7]): 6.1%
Percent change in serum creatinine, individual patients (P# 1-13) (serum creatinine; [8]): −5.1% and −3.7% and 8.7% and 9.8% and 23.4% and 0.9% and 14.3% and 7.7% and 24.0%
Percent change in serum creatinine, mean (M) of 13 patients (serum creatinine; [8]): 7.2%
Percent change in serum creatinine, individual patients (P# 1-13) (serum creatinine; [9]): 17.7% and 7.4% and 2.9% and 4.9% and 9.9% and 0.0% and 6.3% and 7.7% and 18.7%
Percent change in serum creatinine, mean (M) of 13 patients (serum creatinine; [9]): 8.0%
Percent change in serum creatinine, individual patients (P# 1-13) (serum creatinine; [10]): 15.2% and 2.3% and 0.5% and 1.0% and 10.4% and 5.7% and 7.1% and 5.1% and 12.0%
Percent change in serum creatinine, mean (M) of 13 patients (serum creatinine; [10]): 5.8%
Percent change in serum creatinine, individual patients (P# 1-13) (serum creatinine; [11]): 12.7% and −2.8% and −1.9% and −2.9% and 10.8% and 11.3% and 7.9% and 2.6% and 5.3%
Percent change in serum creatinine, mean (M) of 13 patients (serum creatinine; [11]): 3.7%
Percent change in serum creatinine, individual patients (P# 1-13) (serum creatinine; [12]): 10.1% and −7.4% and −8.7% and −6.9% and 0.9% and −2.8% and 12.7% and 12.8% and 24.0%
Percent change in serum creatinine, mean (M) of 13 patients (serum creatinine; [12]): 3.8%
Percent change in serum creatinine, individual patients (P# 1-13) (serum creatinine; [13]): 27.8% and 9.3% and 19.4% and 4.9% and 17.1% and 23.6% and 25.4% and −2.6% and 46.7%
Percent change in serum creatinine, mean (M) of 13 patients (serum creatinine; [13]): 13.6%
Effect on serum creatinine levels (serum creatinine; 50 mg qd Day 1 and Day 7, tid Days 2 to 6, male and female patients with hyperuricemia and gout): does not modify
Serum creatinine levels once treatment was stopped after 7 days (serum creatinine; after 7 days of 50 mg treatment, hyperuricemia and gout): did not substantially change
Percent change in Uc (mg/24 h), amount of creatinine excreted into the urine over 24 hours [1, 14]: 47.6% and 5.5% and −22.9% and −16.8% and 11.5% and −8.7% and −5.2% and −8.1% and −15.0% and −3.5% and −11.0% and 3.8%
Percent change in Uc (mg/dL), concentration of creatinine in 24 hour urine [1, 14]: 71.2% and −14.5% and 14.4% and −14.1% and −44.2% and −5.6% and 56.8% and −21.0% and −33.0% and 5.4% and −35.5% and 25.6%
Percent change in Uc (mg/24 h), amount of creatinine excreted into the urine over 24 hours [1, 15]: −14.5% and 19.2% and 15.4% and 10.8% and 7.9% and 5.9% and 5.6% and 21.6% and 5.8% and −4.8% and −10.8%
Percent change in Uc (mg/dL), concentration of creatinine in 24 hour urine [1, 15]: −31.0% and 0.2% and −33.7% and −21.3% and −15.2% and −32.1% and −38.3% and −24.0% and −11.2% and −6.0% and −30.1%
Percent change in Uc (mg/24 h), amount of creatinine excreted into the urine over 24 hours [1, 16]: −1.9%
Percent change in Uc (mg/dL), concentration of creatinine in 24 hour urine [1, 16]: 0.5%
Percent change in Uc (mg/24 h), amount of creatinine excreted into the urine over 24 hours [1, 17]: 5.6%
Percent change in Uc (mg/dL), concentration of creatinine in 24 hour urine [1, 17]: −22.1%
Mean CFB (change from baseline) in uric acid levels (serum uric acid; single oral dose 50 mg, 4 hours after dose): −23%
Mean CFB (change from baseline) in uric acid levels (serum uric acid; single oral dose 50 mg, 24 hours after dose): −25%
Mean CFB (change from baseline) in uric acid levels (serum uric acid; single oral dose 50 mg, 48 hours after dose): −24%
Mean CFB (change from baseline) in uric acid levels (serum uric acid; single oral dose 100 mg, 4 hours after dose): −25%
Mean CFB (change from baseline) in uric acid levels (serum uric acid; single oral dose 100 mg, 24 hours after dose): −28%
Mean CFB (change from baseline) in uric acid levels (serum uric acid; single oral dose 100 mg, 48 hours after dose): −29%
Mean CFB (change from baseline) in uric acid levels (serum uric acid; single oral dose 200 mg, 4 hours after dose): −29%
Mean CFB (change from baseline) in uric acid levels (serum uric acid; single oral dose 200 mg, 24 hours after dose): −36%
Mean CFB (change from baseline) in uric acid levels (serum uric acid; single oral dose 200 mg, 48 hours after dose): −37%
Mean CFB (change from baseline) in uric acid levels (serum uric acid; single oral dose 300 mg, 4 hours after dose): −30%
Mean CFB (change from baseline) in uric acid levels (serum uric acid; single oral dose 300 mg, 24 hours after dose): −48%
Mean CFB (change from baseline) in uric acid levels (serum uric acid; single oral dose 300 mg, 48 hours after dose): −49%
Mean CFB (change from baseline) in uric acid levels (serum uric acid; single oral dose 400 mg, 4 hours after dose): −27%
Mean CFB (change from baseline) in uric acid levels (serum uric acid; single oral dose 400 mg, 24 hours after dose): −48%
Mean CFB (change from baseline) in uric acid levels (serum uric acid; single oral dose 400 mg, 48 hours after dose): −45%
Time course of uric acid levels after single dose (serum uric acid; single oral doses 50-400 mg, 4, 24 and 48 hours): decreased further up to the 24-hour timepoint, with no further decrease at 48 hours
Dose relation of decreases in uric acid levels (serum uric acid; single oral doses 50-400 mg, slightly lower decreases at 400 mg): dose-related up to the 300 mg dose
Uric acid excretion levels in the urine ([2]; after initiation of treatment, 50 mg qd Day 1 and Day 7, tid Days 2 to 6, hyperuricemia and gout): increased
Percent change in Uu (mg/24 h), amount of uric acid excreted into the urine over 24 hours ([2]; individual patient (P#), [D 1 to D 2] from [D −2 to D −1], 50 mg qd Day 1 and 7, tid Days 2 to 6): 14.4% and 6.5% and −29.9% and 12.0% and −55.4% and 85.4% and 25.1% and 99.2% and 43.4% and −30.9% and −7.1% and 27.8%
